Test results taken from patent publication US20210251228A1, “METHODS FOR REPELLING DROSOPHILA SPECIES USING 2-PENTYLFURAN” (The United States of America, as represented by the …, priority 2020, published 2021).
Structures can show the parent of a compound that is named as a salt.

How the values were obtained:
[1] = system: Drosophila suzukii antennae; test: Coupled GC-EAD of bread dough headspace volatiles on SWD antennae; conditions: adult female SWD antennae; adsorbent extract of bread dough; authentic standards 10 ng/μl
Protocol: Adsorbent Sampling from Bread Dough: The bread dough bait consisted of whole-wheat flour (17.25 g), sugar (2 g), dry active bread yeast (0.325 g), apple cider vinegar (1 ml), and water (25 ml) (Cha, D. H., et al., J. Econ. Entomol., 111: 645-652 (2018a)). Headspace volatiles were collected from 10 g bread dough ball placed in a screened specimen cup (130 ml) by using 2.41 closed volatile collection chambers (ARS, Inc., Gainesville, Fla.) with one air inlet adapter (7 mm ID) on the top and an outlet adapter (7 mm ID) on the bottom wall. Clean air from a filtering and delivery system (ARS Inc., Gainesville, Fla.) was pushed into the chamber at 0.7 L/min through the top inlet port, and volatiles from the dough were pushed out through volatile traps (activated charcoal adsorbent filters, ORBO™32-small, Supelco Inc., Bellefonte, Pa.) on the bottom of the chamber. An additional ORBO™ filter was used to ensure that no breakthrough occurred. For each sample of dough (2 dough samples total), adsorbent collections were made over a 2-day period at room temperature using the same volatile trap. Volatiles were eluted with 600 μl methylene chloride every 24 h from the filters of a given dough sample and combined across the total of the collecting days (from 2 dough samples). The combined extract was kept at −20° C. and subjected to as chromatography-electroantennographic detection (GC-EAD) and gas chromatography-mass spectrometry (GC-MS) analyses.
Coupled Gas Chromatographic-Electroantennographic Detection (GC-EAD): Coupled GC-EAD analysis was performed as described previously (Cha, D. H., J. Chem. Ecol., 34: 1180-1189 (2008); Cha, D. H., et al., J. Chem. Ecol., 38: 1419-1431 (2012)) using a Hewlett Packard 5890 Series II gas chromatograph equipped with either a non-polar DB-5 ms capillary column (30 m×0.25 mm ID, 0.25 μm film thickness; Agilent Technologies, Wilmington, Del.) or polar DB-WAXetr capillary column (30 m×0.25 mm ID, 0.25 μm film thickness; Agilent Technologies, Wilmington, Del.) in the splitless mode with 1 min sampling time. The oven temperature was programmed at 40° C. for 5 min, then increased by 15° C./min to 250° C., and held for 5 min. Injector and detector temperatures were set at 250° C. Nitrogen gas was the carrier at a flow of 2 ml/min. The column effluent was split 1:1 in the oven via a “Y” glass splitter (Supelco). One arm of the splitter led to the flame ionization detector (FID) (250° C.) and the other to the heated EAD port (250° C.). Whole head preparations were made of individual flies, age 5-9 day, for GC-EAD analysis (Cha et al. 2012). The head was separated from the body and its antennae positioned between two gold wire electrodes immersed in saline filled (Drosophila ringer solution; 46 mmol NaCl, 182 mmol KCl, 3 mmol CaCl2, and 10 mmol Tris HCl at pH 7.2) micropipettes in an acrylic holder. The antennal holder was placed inside a humidified condenser and maintained at 5° C. The output signal from the antenna was amplified by a customized high input impedance DC amplifier and recorded on an HP 3390A integrator.
Chemical Analysis: GC-MS was carried out with an Agilent 5975MS coupled with a Agilent 6890GC equipped with either a DB-5 ms capillary column (30 m×0.25 mm ID, 0.25 μm film thickness; Agilent Technologies, Wilmington, Del.) or DB-WAXetr capillary column (30 m×0.25 mm ID, 0.25 μm film thickness; Agilent Technologies, Wilmington, Del.). Helium was the carrier gas (1.0 ml/min constant flow). The GC temperature program was the same as used for the GC-EAD analyses. The MS transfer-line was held at 260° C., the MS source at 230° C., and the MS quad at 150° C. Mass spectra were taken in EI mode (at 70 eV) in the range from 40 m/z to 350 m/z with a scanning rate of 4.58 scan/s. GC-MS data were processed with the MDS-Chemstation software (Agilent Technologies). […]

SWD = conditions: 1-octen-3-ol released near ripe raspberries; cited from earlier work

Compound | GC-EAD activity (antennal response) [1] | effect on infestation of ripe raspberries by SWD (SWD)
CCCCCCCO [1-heptanol] | active | 
CCCCCCO [1-hexanol] | active | 
C=CC(O)CCCCC (stereo not drawn) [1-octen-3-ol, reference compound] | active | significantly reduced infestation
CCCCCO [1-pentanol] | active | 
CC(O)C(C)O (stereo not drawn) [2,3-butanediol] | active | 
CCC(C)COC(C)=O (stereo not drawn) [2-methylbutyl acetate] | active | 
CCCCCCCC(C)=O [2-nonanone] | active | 
OCCc1ccccc1 [2-phenylethanol] | active | 
CC(=O)C(C)O (stereo not drawn) [acetoin] | active | 
CCCCCCCC(=O)OCC [ethyl octanoate] | active | 
CC(=O)OCCC(C)C [isoamyl acetate] | active | 
CC(C)CCOC=O [isoamyl formate] | active | 
CCCCCCCCC=O [nonanal] | active | 
CCCCCOC(C)=O [pentyl acetate] | active | 
